Measured values from the supplement of paper PMC11208160.

Assay: recombinant UMI read abundance after kanamycin selection (control-corrected) (log10(CPM+1)); higher = more efficient recombination; extreme values may be limits of the assay; sequences stand for … in AGTGCAGAGAAAATCGGCCAGTTTTCTCTGCCTGCAGTCCGCATGCCGTGGGACCCCTTGGGTTCTAACCTGTTGCCTAGATTTATGCAGCGGACTGCCTTTCTCCCAAAGTGATAAACCGG…AGGTTGGTTTCACT; site = the 11-nt donor
How it was run: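 Values, expressed as log10(CPM+1), derive from recombinant UMI counts converted to CPM, averaged across replicates and scaled by control-derived factors. Plating was with IPTG (0.07 mM) plus kanamycin or unselected, two replicates each. The screen pooled donor and donor-binding-loop pairs for the IS621 bridge recombinase in Escherichia coli.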
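Further: IS621 bridge recombinase in Escherichia coli cells against a fixed T5 target plasmid.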

In order of rising “recombinant UMI read abundance (log10)” value:
1. CCGTTGTCATGGACCGGTTTTCCCGGTAATCCGTATTTGTC (site CCGTTGTCTGA)  0
2. CCGTTTACATGGACCGGTTTTCCCGGTAATCCGTATTTGAT (site CCGTTTACTAC)  0
3. CCGTTTACATGGACCGGTTTTCCCGGTAATCCGTATTTGAT (site CCGTTTACTAG)  0
4. CCGTTTACATGGACCGGTTTTCCCGGTAATCCGTATTTGAT (site CCGTTTACTAT)  0
5. CCTAAAGCATGGACCGGTTTTCCCGGTAATCCGTATTTGAA (site CCTAAAGCTAT)  0
6. CCTAAAGCATGGACCGGTTTTCCCGGTAATCCGTATTTGAA (site CCTAAAGCTGT)  0
7. CCTAAAGCATGGACCGGTTTTCCCGGTAATCCGTATTTGTT (site CCTAAAGCTAC)  0
8. CCTAAAGCATGGACCGGTTTTCCCGGTAATCCGTATTTGTT (site CCTAAAGCTAG)  0
9. CCTAACACATGGACCGGTTTTCCCGGTAATCCGTATTTGGC (site CCTAAAACTGC)  0
10. CCTAACACATGGACCGGTTTTCCCGGTAATCCGTATTTGGC (site CCTAACACTGC)  0
11. CCTAACACATGGACCGGTTTTCCCGGTAATCCGTATTTGGC (site CCTAAGACTGC)  0
12. CCTAACACATGGACCGGTTTTCCCGGTAATCCGTATTTGGC (site CCTAATACTGC)  0
13. CCTAACGCATGGACCGGTTTTCCCGGTAATCCGTATTTGAT (site CCTAAAGCTAT)  0
14. CCTAACGCATGGACCGGTTTTCCCGGTAATCCGTATTTGAT (site CCTAACGCTAT)  0
15. CCTAACGCATGGACCGGTTTTCCCGGTAATCCGTATTTGAT (site CCTAAGGCTAT)  0
16. CCTAACGCATGGACCGGTTTTCCCGGTAATCCGTATTTGAT (site CCTAATGCTAT)  0
17. CCTAATCCATGGACCGGTTTTCCCGGTAATCCGTATTTGGC (site CCTAATACTGC)  0
18. CCTAATCCATGGACCGGTTTTCCCGGTAATCCGTATTTGGC (site CCTAATCCTGC)  0
19. CCTAATCCATGGACCGGTTTTCCCGGTAATCCGTATTTGGC (site CCTAATGCTGC)  0
20. CCTAATCCATGGACCGGTTTTCCCGGTAATCCGTATTTGGC (site CCTAATTCTGC)  0
21. CCTACTACATGGACCGGTTTTCCCGGTAATCCGTATTTGGC (site CCTAATACTGC)  0
22. CCTACTACATGGACCGGTTTTCCCGGTAATCCGTATTTGGC (site CCTACTACTGC)  0
23. CCTACTACATGGACCGGTTTTCCCGGTAATCCGTATTTGGC (site CCTAGTACTGC)  0
24. CCTACTACATGGACCGGTTTTCCCGGTAATCCGTATTTGGC (site CCTATTACTGC)  0
25. CCTACTTCATGGACCGGTTTTCCCGGTAATCCGTATTTGAT (site CCTACTTCTAT)  0
26. CCTATAGCATGGACCGGTTTTCCCGGTAATCCGTATTTGAT (site CCTAAAGCTAT)  0
27. CCTATAGCATGGACCGGTTTTCCCGGTAATCCGTATTTGAT (site CCTACAGCTAT)  0
28. CCTATTACATGGACCGGTTTTCCCGGTAATCCGTATTTGGC (site CCTAATACTGC)  0
29. CCTATTACATGGACCGGTTTTCCCGGTAATCCGTATTTGGC (site CCTACTACTGC)  0
30. CCTATTACATGGACCGGTTTTCCCGGTAATCCGTATTTGGC (site CCTAGTACTGC)  0
31. CCTATTACATGGACCGGTTTTCCCGGTAATCCGTATTTGGC (site CCTATTACTGC)  0
32. CCTATTTCATGGACCGGTTTTCCCGGTAATCCGTATTTGGC (site CCTATTTCTGC)  0
33. CCTATTTCATGGACCGGTTTTCCCGGTAATCCGTATTTGTC (site CCTATTTCTGA)  0
34. CCTGTTCCATGGACCGGTTTTCCCGGTAATCCGTATTTGTC (site CCTGTTCCTGA)  0
35. CCTGTTTCATGGACCGGTTTTCCCGGTAATCCGTATTTGAC (site CCTGTTTCTGT)  0
36. CCTTAGCCATGGACCGGTTTTCCCGGTAATCCGTATTTGCC (site CCATAGCCTGG)  0
37. CCTTAGCCATGGACCGGTTTTCCCGGTAATCCGTATTTGCC (site CCCTAGCCTGG)  0
38. CCTTAGCCATGGACCGGTTTTCCCGGTAATCCGTATTTGCC (site CCGTAGCCTGG)  0
39. CCTTAGCCATGGACCGGTTTTCCCGGTAATCCGTATTTGCC (site CCTTAGCCTGG)  0
40. CCTTCTACATGGACCGGTTTTCCCGGTAATCCGTATTTGAT (site CCTTCTACTAT)  0
41. CCTTTTACATGGACCGGTTTTCCCGGTAATCCGTATTTGCT (site CCATTTACTAG)  0
42. CCTTTTACATGGACCGGTTTTCCCGGTAATCCGTATTTGCT (site CCCTTTACTAG)  0
43. CCTTTTACATGGACCGGTTTTCCCGGTAATCCGTATTTGCT (site CCTTTTACTAG)  0
44. CGAAATCCATGGACCGGTTTTCCCGGTAATCCGTATTTGCT (site CGGAATCCTAA)  0
45. CCTAAAGCATGGACCGGTTTTCCCGGTAATCCGTATTTGTT (site CCTAAAGCTAA)  0.0032
46. CCTAAAGCATGGACCGGTTTTCCCGGTAATCCGTATTTGAA (site CCTAAAGCTCT)  0.00343
47. CCTAAAGCATGGACCGGTTTTCCCGGTAATCCGTATTTGTT (site CCTAAAGCTAT)  0.00347
48. CCTTTTACATGGACCGGTTTTCCCGGTAATCCGTATTTGCT (site CCGTTTACTAG)  0.00369
49. CGAAATCCATGGACCGGTTTTCCCGGTAATCCGTATTTGTA (site CGGAATCCTAA)  0.00383
50. CCTTTACCATGGACCGGTTTTCCCGGTAATCCGTATTTGCC (site AGACCGTCTCT)  0.00566
51. CCTGGAACATGGACCGGTTTTCCCGGTAATCCGTATTTGTT (site CCTGGAACTAA)  0.00583
52. CCTGGTGCATGGACCGGTTTTCCCGGTAATCCGTATTTGAT (site CCGGGTGCTAT)  0.00642
53. CCTGAGACATGGACCGGTTTTCCCGGTAATCCGTATTTGAG (site CCTGAGACTCT)  0.00693
54. CCTATAGCATGGACCGGTTTTCCCGGTAATCCGTATTTGAT (site CCTATAGCTAT)  0.00747
55. CCTGGAACATGGACCGGTTTTCCCGGTAATCCGTATTTGTT (site CGTGGAACTAA)  0.00754
56. CCTGGAACATGGACCGGTTTTCCCGGTAATCCGTATTTGTT (site CTTGGAACTAA)  0.00851
57. CCTGGTGCATGGACCGGTTTTCCCGGTAATCCGTATTTGAT (site CCAGGTGCTAT)  0.00887
58. CCTGGTGCATGGACCGGTTTTCCCGGTAATCCGTATTTGAT (site CCCGGTGCTAT)  0.00946
59. CCTGGAACATGGACCGGTTTTCCCGGTAATCCGTATTTGTT (site CATGGAACTAA)  0.0113
60. CCTTGAGCATGGACCGGTTTTCCCGGTAATCCGTATTTGTA (site CCTTGAGCTTA)  0.013
61. CCTTGACCATGGACCGGTTTTCCCGGTAATCCGTATTTGAG (site CCTTGACCTCT)  0.0135
62. CCTTGCACATGGACCGGTTTTCCCGGTAATCCGTATTTGAG (site CCTTGCACTCT)  0.0135
63. CCTTGTGCATGGACCGGTTTTCCCGGTAATCCGTATTTGGA (site CCTTGTGCTTC)  0.0149
64. CCTATACCATGGACCGGTTTTCCCGGTAATCCGTATTTGCG (site CCTATACCTCG)  0.0152
65. CCTCCAACATGGACCGGTTTTCCCGGTAATCCGTATTTGTA (site CCTCCAACTTA)  0.0158
66. CCTACAACATGGACCGGTTTTCCCGGTAATCCGTATTTGAA (site CCTACAACTTT)  0.0165
67. CCTATAGCATGGACCGGTTTTCCCGGTAATCCGTATTTGAT (site CCTAGAGCTAT)  0.0174
68. CCTCGGACATGGACCGGTTTTCCCGGTAATCCGTATTTGGG (site CCTCGGACTCC)  0.0416
69. CCGTTTACATGGACCGGTTTTCCCGGTAATCCGTATTTGAT (site CCGTTTACTAA)  0.0556
70. CCTCTAGCATGGACCGGTTTTCCCGGTAATCCGTATTTGTA (site CCTCTAGCTTA)  0.352
71. CCTGGTGCATGGACCGGTTTTCCCGGTAATCCGTATTTGAT (site CCTGGTGCTAT)  0.494
72. CCTAAAGCATGGACCGGTTTTCCCGGTAATCCGTATTTGAA (site CCTAAAGCTTT)  0.699
73. CGAAATCCATGGACCGGTTTTCCCGGTAATCCGTATTTGCT (site CGAAATCCTAG)  0.783
74. CGAAATCCATGGACCGGTTTTCCCGGTAATCCGTATTTGTT (site CGAAATCCTAA)  0.953
75. CGAAATCCATGGACCGGTTTTCCCGGTAATCCGTATTTGTA (site CGAAATCCTTA)  1.11
